Laboratory results reported in patent US8802353B2, “Compound for resist and radiation-sensitive composition specification” (Mitsubishi Gas Chemical Company, Inc., priority 2004, dated 2014).

Legend:
Format in all cases: physicochemical
[1] = Glass transition temperature, crystallization temperature and quantity of crystallization heat (DSC); settings: for Glass transition temperature: 20° C./min, nitrogen gas flow; for Glass transition temperature-Crystallization temperature: rating of the difference
Method: A sample (about 10 mg) placed in a non-sealed aluminum container was heated to a temperature higher than the melting point at a temperature rising rate of 20° C./min in a nitrogen gas flow (50 ml/min). After being rapidly cooled, the sample was again heated to a temperature higher than the melting point at a temperature rising rate of 20° C./min in a nitrogen gas flow (30 ml/min). After being rapidly cooled, the sample was again heated to 400° C. at a temperature rising rate of 20° C./min in a nitrogen gas flow (30 ml/min), to conduct a differential scanning calorimetric analysis using DSC/TA-50WS manufactured by Shimadzu Corporation. The middle point of the region at which the base line turned discontinuous (the point at which the specific heat reduced to half) was taken as the glass transition temperature (Tg) and the temperature of the exothermic peak after the discontinuous region was taken as the crystallization temperature. The quantity of crystallization heat was determined by the area of the region which was surrounded by the exothermic peak and the base line. The sample was rated A when meeting Tg≧130° C., and rated C when meeting Tg≦130° C. Also, the sample was rated A when meeting (glass transition temperature)−(crystallization temperature)≧70° C., and rated C when meeting (glass transition temperature)-(crystallization temperature)<70° C.

[2] = Ultraviolet-visible absorption spectra, absorptivity coefficient at 248 nm; settings: 0.01 g/L methanol solution
Method: From the ultraviolet-visible absorption spectra of a 0.01 g/L methanol solution of each of Compounds 103, 105 and 108 measured by an autographic spectrophotometer “UV-3100PC” manufactured by Shimadzu Corporation, the absorptivity coefficient at 248 nm of each compound was determined. The absorptivity coefficient was 43.4 L/(cm·g) for Compound 103, 47.4 L/(cm·g) for Compound 105, and 16.9 L/(cm·g) for Compound 108. The absorptivity coefficient is sufficiently larger than 15 L/(cm·g) in any of the compounds, to indicate that the compounds, particularly Compounds 103 and 105, are useful as the raw material of the compound B for forming shade masks. The compounds B produced from these compounds and the radiation-sensitive composition containing such compounds B also have a high absorptivity and are useful for forming shade masks.

[3] = Solubility in safety solvent; settings: 23° C.; PGMEA, PGME, ethyl lactate, butyl acetate, methyl 3-methoxypropionate, ethyl propionate
Method: The solubility of the compound B was tested at 23° C. using propylene glycol monomethyl ether acetate, propylene glycol monomethyl ether, ethyl lactate, butyl acetate, methyl 3-methoxypropionate and ethyl propionate. The sample was rated A when dissolved in any one of the above solvents in a concentration of 5 wt % or more, rated B when dissolved in a concentration of 0.1 to 5 wt %, and rated C when dissolved only in a concentration of less than 0.1 wt %.

[4] = Film-forming property (spin-coated film on silicon wafer); set-up: key: rated C when the film was clouded or its surface was roughened; rated B when the film was partly clouded or roughened; rated A when the film had a good surface flatness without causing clouding; settings: 3% by weight solution spin-coated, 110° C. 3 min
Excerpt: A 3% by weight solution of the compound B or a mixture (compound B and polyphenol A) in PGME/PE (1/2 by weight) or acetone when not dissolved in PGME/PE was spin-coated on a silicon wafer which had been surface-treated with a silane coupling agent, to form a resist film with a thickness of about 0.05 μm.

[5] = Adhesion to silicon substrate; set-up: key: rated A when the film was not peeled from the silicon wafer; rated C when peeled off; settings: silicon wafer surface-treated with silane coupling agent
Method: The resist film formed in (2-2) was tested for its adhesion to the silicon wafer which was surface-treated with a silane coupling agent. The sample was rated A when the film was not peeled from the silicon wafer, and rated C when peeled off.

Row | SMILES | Glass transition temperature Rating ([1]; DSC) | Glass transition temperature ([1]; DSC) | Glass transition temperature-Crystallization temperature [1] | absorptivity coefficient at 248 nm [2] | Crystallization temperature ([1]; DSC, exothermic peak) | Solubility to safety solvent [3] | film-forming property [4] | Adhesion to silicon substrate [5]
1 | Cc1cc(C(c2cc(C(c3cc(C)c(O)c(C)c3C)c3cc(C)c(O)c(C)c3C)cc(C(c3cc(C)c(O)c(C)c3C)c3cc(C)c(O)c(C)c3C)c2)c2cc(C)c(O)c(C)c2C)c(C)c(C)c1O [Compound 108] | A (rated A when meeting Tg≧130° C.) | 125 °C | A (rated A when meeting (glass transition temperature)−(crystallization temperature)≧70° C.) | 16.9 L/cm/g | – | – | – | –
2 | Cc1cc(O)c(C(C)C)cc1C(c1ccc2cc(C(c3cc(C(C)C)c(O)cc3C)c3cc(C(C)C)c(O)cc3C)ccc2c1)c1cc(C(C)C)c(O)cc1C [Compound 103] | C (rated C when meeting Tg≦130° C.) | 116 °C | A (rated A when meeting (glass transition temperature)−(crystallization temperature)≧70° C.) | 43.4 L/cm/g | 190 °C | – | – | –
3 | Cc1cc(C(c2ccc3ccc(C(c4cc(C)c(O)c(C)c4C)c4cc(C)c(O)c(C)c4C)cc3c2)c2cc(C)c(O)c(C)c2C)c(C)c(C)c1O [Compound 105] | A (rated A when meeting Tg≧130° C.) | 156 °C | A (rated A when meeting (glass transition temperature)−(crystallization temperature)≧70° C.) | 47.4 L/cm/g | – | – | – | –
4 | CCOC(C)Oc1c(C)cc(C(c2ccc3cc(C(c4cc(C)c(O)c(C)c4C)c4cc(C)c(O)c(C)c4C)ccc3c2)c2cc(C)c(O)c(C)c2C)c(C)c1C (stereo not shown) [Compound 111] | – | – | – | – | – | A (rated A when dissolved in any one of the above solvents in a concentration of 5 wt % or more) | A | A
5 | CC(C)(C)OC(=O)Oc1ccc(-c2cc(-c3ccc(OC(=O)OC(C)(C)C)cc3)cc(-c3ccc(OC(=O)OC(C)(C)C)cc3)c2)cc1 [Compound 204, reference compound] | – | – | – | – | – | A (rated A when dissolved in any one of the above solvents in a concentration of 5 wt % or more) | B | A
6 | CCOC(C)Oc1ccc(C(C)(c2ccc(O)c(C)c2)c2ccc3ccccc3c2)cc1C (stereo not shown) [Compound 207, reference compound] | – | – | – | – | – | A (rated A when dissolved in any one of the above solvents in a concentration of 5 wt % or more) | A | A
7 | CCOC(C)Oc1cc(C)c(C(c2ccc3cc(C(c4cc(C)c(O)cc4C)c4cc(C)c(O)cc4C)ccc3c2)c2cc(C)c(O)cc2C)cc1C (stereo not shown) [Compound 109] | – | – | – | – | – | A (rated A when dissolved in any one of the above solvents in a concentration of 5 wt % or more) | A | A
